Measured values: PubChem BioAssay (NCI)
Several values for one entry are separate records, joined by “and”; a condition that tells them apart may be missing. Identical values can stand only once.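 Compound exposure: 48 hours, 5 concentrations, 96-well plates. GI50: concentration for 50% inhibition of growth. TGI: concentration producing complete growth inhibition.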 *1 amine or outer side, *2 acyl side, *3 side chain or, on linkers, in order; H or OH if unused. Where a SMILES comes first, the peptide text is derived from it. The star is where a group is joined. γGlu = O=C(O)[CH](CCC(=O)[*:2])N[*:1]; Cbz = O=C(OCc1ccccc1)*; NHOH = ON*

Key:
Assay in all cases: NCI anticancer screen, dose series, 48 h
786-0 renal = system: 786-0 renal
A549 NSCLC = system: A549 NSCLC
CCRF-CEM leukemia = system: CCRF-CEM leukemia
OVCAR-3 ovarian = system: OVCAR-3 ovarian
SK-MEL-2 melanoma = system: SK-MEL-2 melanoma
SNB-19 CNS = system: SNB-19 CNS
SR leukemia = system: SR leukemia
U251 CNS = system: U251 CNS
RXF 393 renal = system: RXF 393 renal
SNB-75 CNS = system: SNB-75 CNS

| Compound | TGI (786-0 renal) [µM] | TGI (A549 NSCLC) [µM] | TGI (CCRF-CEM leukemia) [µM] | TGI (OVCAR-3 ovarian) [µM] | TGI (SK-MEL-2 melanoma) [µM] | TGI (SNB-19 CNS) [µM] | TGI (SR leukemia) [µM] | TGI (U251 CNS) [µM] | TGI (RXF 393 renal) [µM] | TGI (SNB-75 CNS) [µM] | GI50 (A549 NSCLC) | GI50 (CCRF-CEM leukemia) | GI50 (RXF 393 renal) | GI50 (SNB-75 CNS) | GI50 (SR leukemia) | GI50 (U251 CNS) |
| --- | --- | --- | --- | --- | --- | --- | --- | --- | --- | --- | --- | --- | --- | --- | --- | --- |
| CCOC(=O)CCC(NC(=O)C(CC(=O)OC)NC(=O)OCc1ccccc1)C(=O)NC(CC(=O)OC)C(=O)NC(CCC(=O)OCC)C(=O)NC(CC(=O)OC)C(=O)NC(CCC(=O)OCC)C(=O)NC(CC(=O)OCC)C(=O)OCC (stereo not given) (Cbz-D(OMe)E(OEt)D(OMe)E(OEt)D(OMe)E(OEt)D(OEt)-OEt; configuration not given here) | > 100 | > 100 | > 100 | > 100 | > 100 | > 100 | > 100 | > 100 |  |  |  |  |  |  |  |  |
| CC(Nc1cccc(Cl)c1)c1ccncc1 (stereo not given) | > 100 | > 100 | > 100 | > 100 | > 100 | > 100 |  | > 100 | > 100 | > 100 |  |  |  |  |  |  |
| O=C(Nc1ccc(Cl)cc1)c1cc(S(=O)(=O)Nc2nc3ncccc3[nH]2)c(SSc2cc(Cl)c(C(=O)Nc3ccc(Cl)cc3)cc2S(=O)(=O)Nc2nc3ncccc3[nH]2)cc1Cl | > 100 | > 100 | > 100 | > 100 | > 100 | > 100 |  | > 100 | > 100 | > 100 |  |  |  |  |  |  |
| CC(C)NC1CCCCC2c3ccccc3C12O (stereo not given) | > 100 | > 100 | > 100 |  | > 100 | > 100 | > 100 | > 100 | > 100 | > 100 |  |  |  |  |  |  |
| COc1ccc(/C=C2\C(=O)N(C(=O)c3ccc(NC(C)=O)cc3)N=C2C)cc1OC | > 100 | > 100 | > 100 | > 100 | > 100 | > 100 | > 100 |  |  | > 100 |  |  |  |  |  |  |
| O=[N+]([O-])C(/C(Cl)=C(/Cl)N1CCOCC1)=C1\Nc2ccccc2O1 | > 100 | > 100 | > 100 | > 100 | > 100 | > 100 |  | > 100 |  | > 100 |  |  |  |  |  |  |
| CC(=O)Oc1ccc2c(c1)O/C(=C\c1ccc(N(C)C)cc1)C2=O | > 100 | > 100 | > 100 |  |  | > 100 | > 100 | > 100 | > 100 | > 100 |  |  |  |  |  |  |
| NC(CCC(=O)NC(CCC(=O)NO)C(=O)NCC(=O)O)C(=O)O (stereo not given) (γGlu-Glu(NHOH)-Gly-OH; configuration not given here) | > 100 | > 100 | > 100 | > 100 | > 100 | > 100 |  | > 100 | > 100 | > 100 |  |  |  |  |  |  |
| CCOC(=O)c1ccc(-c2onc(C)c2Br)[nH]1 | > 100 | > 100 |  | > 100 | > 100 | > 100 |  | > 100 | 96.1 | > 100 |  |  |  |  |  |  |
| O=c1[nH]c2c(C(F)(F)F)c(Cl)c(-c3ccccc3)nc2o1 | > 100 | > 100 | 34 | 65.8 | 52.7 | > 100 |  | 85.6 | 75.3 |  |  |  |  |  |  |  |
| COC(=O)c1sc2nc(Nc3ccccc3)c(=Nc3ccccc3)sc2c1C | > 100 | > 100 | > 100 |  | > 100 | > 100 | > 100 | > 100 | 80.5 | > 100 |  |  |  |  |  |  |
| O=C1CC(Nc2ccccc2)c2c(Cl)sc(Cl)c21 (stereo not given) | 0.784 | 6 | 0.442 |  | 4.37 | 20.5 |  | 3.32 |  | 4.52 |  |  |  |  |  |  |
| CC1=NN(c2ccccc2)C(=O)/C1=C1\SC(c2ccccc2)(c2ccccc2)c2ccccc21 | > 100 | > 100 | > 100 | > 100 | > 100 | > 100 |  | > 100 | > 100 | > 100 |  |  |  |  |  |  |
| NC(=O)N/N=C(\Cc1cc(=O)oc2cc(O)ccc12)C(=O)Nc1ccccc1C(N)=O | > 100 | > 100 | > 100 | > 100 | > 100 | > 100 |  | > 100 | > 100 | > 100 |  |  |  |  |  |  |
| CN(C)N1C(=C(C#N)C#N)C(c2ccccc2)CC1C#N (stereo not given) | > 100 | > 100 | > 100 |  | > 100 | > 100 |  | > 100 | > 100 | > 100 |  |  |  |  |  |  |
| CC1OC1C(=O)P(=O)(O)O (stereo not given) |  | > 100 | > 100 | > 100 | > 100 | > 100 | > 100 | > 100 |  | > 100 |  |  |  |  |  |  |
| c1ccc(CCCN2C3CCC2CN(CCOC(c2ccccc2)c2ccccc2)C3)cc1 | 21.6 | 27.2 | 39.2 | 30.4 | 22.9 | 28.3 |  | 20.6 |  | 20.8 |  |  |  |  |  |  |

| Compound | TGI (786-0 renal) [µM] | TGI (A549 NSCLC) [µM] | TGI (CCRF-CEM leukemia) [µM] | TGI (OVCAR-3 ovarian) [µM] | TGI (SK-MEL-2 melanoma) [µM] | TGI (SNB-19 CNS) [µM] | TGI (SR leukemia) [µM] | TGI (U251 CNS) [µM] | TGI (RXF 393 renal) [µM] | TGI (SNB-75 CNS) [µM] | GI50 (A549 NSCLC) | GI50 (CCRF-CEM leukemia) | GI50 (RXF 393 renal) | GI50 (SNB-75 CNS) | GI50 (SR leukemia) | GI50 (U251 CNS) |
| --- | --- | --- | --- | --- | --- | --- | --- | --- | --- | --- | --- | --- | --- | --- | --- | --- |
| OC1CCN2Cc3ccccc3N=C12 (stereo not given) | > 100 | > 100 | > 100 | > 100 | > 100 | > 100 |  | > 100 | > 100 | > 100 |  |  |  |  |  |  |
| CN(C)c1ccc(-c2c(C#N)c(-c3ccccc3)n(NS(=O)(=O)c3ccccc3)c(=O)c2C#N)cc1 | > 100 | > 100 | 83.5 |  | > 100 | 83.5 |  | > 100 | > 100 | > 100 |  |  |  |  |  |  |
| CCOC(=O)c1nc(SC)sc1NC(=O)c1ccc(OC)cc1 | > 100 | > 100 | > 100 | > 100 | > 100 | > 100 |  | 55.4 | > 100 |  |  |  |  |  |  |  |
| CC(C)C(Sc1nc(-c2ccccc2)c(-c2ccccc2)[nH]1)C(=O)N/N=C/c1ccc(Cl)cc1 (stereo not given) | 40.8 | 82.3 | 85.4 | 35.5 | 36.5 | > 100 | > 100 | 39.5 |  | 67.6 |  |  |  |  |  |  |
| Cc1cccc(C)c1NC(=S)N/C=C(\C#N)C(N)=O | > 100 | > 100 | > 100 | > 100 | > 100 | > 100 |  | > 100 | > 100 |  |  |  |  |  |  |  |
| COC(=O)[C@H](Cc1ccccc1)NC(=O)N(CCN(CCC#N)C(=O)N[C@H](C(=O)OC)C(C)C)c1ccccc1 | > 100 | > 100 | > 100 | > 100 | > 100 | > 100 |  | > 100 | > 100 | > 100 |  |  |  |  |  |  |
| CN(C)CC1CCC/C(=C\c2ccc(Cl)c(Cl)c2)C1=O (stereo not given) | 3.42 | 30.4 | 2.68 | 13.4 | 16.8 | 22.4 |  | 6.52 |  | 21.2 |  |  |  |  |  |  |
| COc1cc(/C=C2\CC3C4CC=C5C[C@@H](O)CC[C@]5(C)C4CC[C@]3(C)\C2=N\O)cc(OC)c1OC (stereo not given in full) | 72.2 | > 100 | > 100 | 61.4 | 17.1 | > 100 |  | 28.2 | 25.1 | > 100 |  |  |  |  |  |  |
| CCOC(=O)c1nc2ccccc2nc1Nc1cc(OC)c(OC)c(OC)c1 | > 100 | > 100 | > 100 | > 100 | > 100 | > 100 | > 100 | > 100 |  | > 100 |  |  |  |  |  |  |
| O=S(=O)(O)c1cc(O)c(N=NC2S(=O)(=O)OCCOS2(=O)=O)c2ccccc12 | > 100 | > 100 | > 100 | > 100 | > 100 | > 100 |  | > 100 | > 100 | > 100 |  |  |  |  |  |  |
| Cn1c2ccccc2n2c(=O)c(-c3ccc(Cl)cc3)nnc12 | > 100 | > 100 | > 100 |  | > 100 | > 100 | > 100 | > 100 | > 100 | > 100 |  |  |  |  |  |  |
| CC(C)(C)OC(=O)C1C(=O)NC(=O)CC1C(OCc1ccccc1)C(OCc1ccccc1)C(COCc1ccccc1)OCc1ccccc1 (stereo not given) | > 100 | > 100 | > 100 |  |  | > 100 | > 100 | > 100 | > 100 | > 100 | > 100 µM and 26.9 µM | > 100 µM and 49.1 µM | 33.2 µM and 14.4 µM | 26 µM and > 7.5 µM | > 100 µM and 35.1 µM | 68 µM and 14.4 µM |
| CN(C)CCNc1c(O)c2c(c(O)c1Cl)C(=O)C=CC2=O | 4.27 | 5.41 | 4.72 | 3.61 | 3.95 | 3.76 |  | 3.74 | 15.4 | 6.55 |  |  |  |  |  |  |
| Cc1cc(C)c2c(-c3ccccc3)cc(=O)[nH]c2c1 | > 100 | > 100 | > 100 | > 100 | > 100 |  |  | > 100 | > 100 | > 100 |  |  |  |  |  |  |
| CC1=C[C@H](C[C@]2(C)c3c(c4c(C)cccc4oc3=O)O[C@@H]2C)OC1=O | 50 | > 100 | 74.7 | > 100 | > 100 | > 100 | 61.3 | > 100 |  | > 100 |  |  |  |  |  |  |
| Cc1ccc(S(=O)(=O)N(CC(O)COc2ccccc2)c2c(F)c(F)c(F)c(F)c2F)cc1 (stereo not given) | 38.8 | 36.8 |  | 38.9 | 30 | 43.3 | 47.7 | 27.9 |  | 36.5 |  |  |  |  |  |  |
